Consider six compounds from patent US20240018153A1, “BENZENESULFONAMIDE DERIVATIVES AND USES THEREOF” (2692372 ONTARIO, INC., priority 2020, published 2024).

The target in assay [1] is T1, BTK (Homo sapiens (Human), UniProt Q06187). The assay can be described thus: HTRF KinEASE-TK kinase assay, BTK. In kind it is biochemical. The following applies: 3 h preincubation; for remaining activity at 1 µM: 1 μM compound, read-out: % BTK Remaining activity vs DMSO (1 μM, 3 h); for remaining activity at 10 µM: 10 μM compound, read-out: % BTK Remaining activity vs DMSO (10 μM, 3 h); for IC50: dose response, read-out: BTK Inhibition IC50. Summed up: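 Read-out was the 665 nm to 620 nm ratio, taken 60 min after detection, reflecting phosphorylated biotinylated substrate. Before this, BTK reacted 45 min with substrate and ATP in kinase buffer supplemented with MnCl2 (10 mM), MgCl2 (5 mM), ATPγS (1 uM) and TCEP (1 mM).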
For orientation: In TR-FRET formats the signal depends on donor and acceptor labels being close together.

Another assay deals with BMX (Homo sapiens (Human), UniProt P51813). The assay can be described thus: HTRF KinEASE-TK kinase assay, BMX. The assay is classed as biochemical. Particulars: for remaining activity at 1 µM: 1 uM compound; for remaining activity at 1 µM / remaining activity at 10 µM: 3 h preincubation; for remaining activity at 10 µM: 10 uM compound; for IC50: dose response. Summed up:
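Phosphorylation was quantified by HTRF KinEASE-TK as the 665/620 nm ratio, read 60 min after EDTA stop with SA-XL665 (31.25 nM) and europium antibody. Before the reaction, 3.03 nM BMX was preincubated with compound for 3 hours at room temperature, and the reaction was started with biotinylated substrate plus ATP.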

Assay [2] addresses T1, BTK. Briefly: Ramos RA1 cell lysis and immunoassay, total BTK degradation. In kind it is cell-based. More on the design: key to % BTK degradation (RAMOS, 24 h): Y: BTK bound in cells and BTK degradation occurred; concentration or dose not given beside the values. Particulars: RAMOS cells. On the procedure: Ramos RA 1 cells (ATCC) were cultured in RPMI-1640 media (Wisent) supplemented with 10% heat-inactivated FBS and 1% penicillin/streptomycin. Cells were seeded in 6-well plates at 1.71×10^6 cells/well and incubated at 37° C., 5% CO2 for 16 hours. Cells were treated with compound at the indicated concentrations or DMSO alone and incubated at 37° C., 5% CO2 for 24 hours. Cell suspensions were centrifugated at 1,400-1,600 RPM for 5 minutes at room temperature and supernatants were discarded. Cell pellets were resuspended with 1× RIPA buffer (Millipore) and incubated on ice for 15 minutes. Protein lysates were extracted by centrifugating at 20,000 RPM for 20 minutes at 4° C. Proteins were separated and total BTK protein levels were quantified by Simple Western Immunoassay (ProteinSimple) using the 12-230 kDa Jess Separation Module according to the manufacturer's protocol, using a protein concentration of 0.25 μg/μl and antibodies targeting BTK (clone #D3H5, Cell Signalling) and β-Actin (clone #AC-15, Santa Cruz) diluted to 1:400 and 1:10, respectively, where the latter was used as a loading control. An equal ratio of rabbit and mouse HRP-conjugated secondary antibodies was used for detection. BTK protein levels were quantified relative to S-Actin loading levels and subsequently normalized to the DMSO control. Phosphorylated BTK levels were quantified using the Protein Normalization Assay Module for Jess (ProteinSimple) according to the manufacturer's protocol, using a protein concentration of 1.5 μg/μl and an antibody targeting pBTK (Y223) (Cell Signalling) diluted to 1:50. Phosphorylated BTK levels were quantified relative to the Protein Normalization Reagent and subsequently normalized to the DMSO control.

In another assay the target is RIPK2 (Homo sapiens (Human), UniProt O43353). Briefly: In vitro RIPK2 inhibition. In kind it is biochemical. The following applies: for remaining activity at 1 µM: read-out: % RIPK2 Remaining activity vs DMSO (1 μM, 3 h); for remaining activity at 10 µM: read-out: % RIPK2 Remaining activity vs DMSO (10 μM, 3 h).
A further assay deals with FGFR4 (Homo sapiens (Human), UniProt P22455). The assay can be described thus: HTRF KinEASE-TK kinase assay, FGFR4. In kind it is biochemical. The following applies: for remaining activity at 1 µM: read-out: % FGFR4 Remaining activity vs DMSO (1 μM, 3 h); for remaining activity at 10 µM: read-out: % FGFR4 Remaining activity vs DMSO (10 μM, 3 h). Summed up:
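HTRF ratio (Em 665/620 nm) measured 60 min after EDTA stop with SA-XL665 (31.25 nM) and europium antibody reflects phosphorylated biotinylated substrate. Before substrate/ATP addition, 5.12 nM (0.333 ng/ul) FGFR4 sat with compound 3 h at room temperature.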

The next assay deals with EGFR (Homo sapiens (Human), UniProt P00533). The assay can be described thus: HTRF KinEASE-TK kinase assay, EGFR. The following applies: 3 h preincubation; for remaining activity at 1 µM: 1 μM compound, read-out: % EGFR Remaining activity vs DMSO (1 μM, 3 h); for remaining activity at 10 µM: 10 μM compound, read-out: % EGFR Remaining activity vs DMSO (10 μM, 3 h); for IC50: dose response, read-out: EGFR Inhibition IC50. The assay is classed as biochemical. The method, boiled down: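 Buffer contained 5 mM MgCl2, 2 mM MnCl2 and 1 mM TCEP; compounds at two final concentrations, 1 and 10 uM, with 0.5% DMSO, pre-incubated with the enzyme.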

The target of the next assay is JAK3 (Homo sapiens (Human), UniProt P52333). The assay can be described thus: HTRF KinEASE-TK kinase assay, JAK3. In kind it is biochemical. Particulars: for IC50: dose response; for remaining activity at 1 µM: read-out: % JAK3 Remaining activity vs DMSO (1 μM, 3 h); for remaining activity at 10 µM: read-out: % JAK3 Remaining activity vs DMSO (10 μM, 3 h). The method, boiled down: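 HTRF read-out: the Em665/Em620 ratio, measured 60 min after stopping with EDTA, 31.25 nM SA-XL665 and 100-fold diluted Eu-antibody, was taken as phosphorylated substrate. Beforehand, 0.21 nM JAK3 (0.0133 ng/µl) sat with compound for 3 h at room temperature, then biotinylated substrate plus ATP started the reaction.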
Chain of JAK3 (P52333 781-1124): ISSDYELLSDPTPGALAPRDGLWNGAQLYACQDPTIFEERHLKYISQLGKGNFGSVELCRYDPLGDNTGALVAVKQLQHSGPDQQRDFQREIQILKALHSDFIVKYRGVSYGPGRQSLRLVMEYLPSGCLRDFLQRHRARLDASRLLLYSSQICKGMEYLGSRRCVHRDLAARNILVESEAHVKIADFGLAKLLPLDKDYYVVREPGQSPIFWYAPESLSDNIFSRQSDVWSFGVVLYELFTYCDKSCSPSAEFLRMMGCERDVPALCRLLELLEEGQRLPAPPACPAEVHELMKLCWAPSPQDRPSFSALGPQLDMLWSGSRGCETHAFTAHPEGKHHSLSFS

Chain of FGFR4 (P22455 22-802): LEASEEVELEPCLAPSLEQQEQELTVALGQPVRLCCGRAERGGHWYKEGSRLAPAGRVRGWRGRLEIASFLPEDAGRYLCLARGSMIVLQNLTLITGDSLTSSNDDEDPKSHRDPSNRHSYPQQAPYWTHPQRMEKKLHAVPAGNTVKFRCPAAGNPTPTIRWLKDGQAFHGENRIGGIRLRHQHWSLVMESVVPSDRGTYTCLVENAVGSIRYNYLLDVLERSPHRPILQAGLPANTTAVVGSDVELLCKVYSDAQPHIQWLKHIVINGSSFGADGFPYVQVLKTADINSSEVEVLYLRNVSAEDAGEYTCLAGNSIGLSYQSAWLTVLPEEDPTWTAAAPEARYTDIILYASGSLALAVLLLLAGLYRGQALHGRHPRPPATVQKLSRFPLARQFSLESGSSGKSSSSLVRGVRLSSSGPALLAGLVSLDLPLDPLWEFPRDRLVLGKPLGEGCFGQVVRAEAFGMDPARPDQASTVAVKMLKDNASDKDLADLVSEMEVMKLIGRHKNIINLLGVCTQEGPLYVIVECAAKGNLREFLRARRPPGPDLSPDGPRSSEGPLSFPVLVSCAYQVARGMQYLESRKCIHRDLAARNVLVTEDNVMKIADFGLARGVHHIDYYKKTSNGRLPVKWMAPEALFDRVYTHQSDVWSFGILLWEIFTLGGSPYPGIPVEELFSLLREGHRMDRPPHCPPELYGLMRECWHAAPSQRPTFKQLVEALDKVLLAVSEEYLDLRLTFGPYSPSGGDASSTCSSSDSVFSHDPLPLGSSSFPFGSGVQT
T1 sequence (Q06187 whole entry): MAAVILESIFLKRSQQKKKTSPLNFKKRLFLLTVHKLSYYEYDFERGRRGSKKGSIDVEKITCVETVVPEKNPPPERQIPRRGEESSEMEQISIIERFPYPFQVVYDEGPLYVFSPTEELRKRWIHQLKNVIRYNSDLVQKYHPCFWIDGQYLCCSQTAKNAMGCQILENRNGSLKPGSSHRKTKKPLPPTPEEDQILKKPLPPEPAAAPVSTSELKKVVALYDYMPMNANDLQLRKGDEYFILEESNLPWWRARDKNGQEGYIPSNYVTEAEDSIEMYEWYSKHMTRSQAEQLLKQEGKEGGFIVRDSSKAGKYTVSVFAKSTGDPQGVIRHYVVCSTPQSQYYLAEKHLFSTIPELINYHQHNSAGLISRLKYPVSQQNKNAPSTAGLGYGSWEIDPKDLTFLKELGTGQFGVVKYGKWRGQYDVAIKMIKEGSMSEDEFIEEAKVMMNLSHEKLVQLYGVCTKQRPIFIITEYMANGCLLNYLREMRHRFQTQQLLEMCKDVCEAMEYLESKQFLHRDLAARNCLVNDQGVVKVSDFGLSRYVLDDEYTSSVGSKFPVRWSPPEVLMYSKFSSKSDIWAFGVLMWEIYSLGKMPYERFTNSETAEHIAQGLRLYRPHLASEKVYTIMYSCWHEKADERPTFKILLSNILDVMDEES
Chain of BMX (P51813 whole entry): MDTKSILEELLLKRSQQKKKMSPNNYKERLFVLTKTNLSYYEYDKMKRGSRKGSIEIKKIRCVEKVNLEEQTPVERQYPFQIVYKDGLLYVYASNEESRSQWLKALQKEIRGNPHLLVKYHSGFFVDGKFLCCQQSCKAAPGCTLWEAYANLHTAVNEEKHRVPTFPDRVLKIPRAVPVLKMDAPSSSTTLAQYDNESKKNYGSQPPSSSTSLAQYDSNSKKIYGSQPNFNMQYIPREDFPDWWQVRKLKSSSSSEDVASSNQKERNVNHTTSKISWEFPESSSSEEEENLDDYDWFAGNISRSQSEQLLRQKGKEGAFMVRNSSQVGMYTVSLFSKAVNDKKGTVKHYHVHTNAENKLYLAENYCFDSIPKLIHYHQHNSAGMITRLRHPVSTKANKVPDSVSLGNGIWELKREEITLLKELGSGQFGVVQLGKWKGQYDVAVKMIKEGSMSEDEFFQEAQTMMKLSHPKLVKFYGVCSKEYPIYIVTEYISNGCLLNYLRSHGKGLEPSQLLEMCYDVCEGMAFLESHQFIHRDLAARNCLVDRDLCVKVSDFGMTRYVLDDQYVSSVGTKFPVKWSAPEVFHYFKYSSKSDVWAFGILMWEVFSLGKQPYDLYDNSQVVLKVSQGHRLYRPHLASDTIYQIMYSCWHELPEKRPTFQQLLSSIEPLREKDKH
Chain of EGFR (P00533 25-1210): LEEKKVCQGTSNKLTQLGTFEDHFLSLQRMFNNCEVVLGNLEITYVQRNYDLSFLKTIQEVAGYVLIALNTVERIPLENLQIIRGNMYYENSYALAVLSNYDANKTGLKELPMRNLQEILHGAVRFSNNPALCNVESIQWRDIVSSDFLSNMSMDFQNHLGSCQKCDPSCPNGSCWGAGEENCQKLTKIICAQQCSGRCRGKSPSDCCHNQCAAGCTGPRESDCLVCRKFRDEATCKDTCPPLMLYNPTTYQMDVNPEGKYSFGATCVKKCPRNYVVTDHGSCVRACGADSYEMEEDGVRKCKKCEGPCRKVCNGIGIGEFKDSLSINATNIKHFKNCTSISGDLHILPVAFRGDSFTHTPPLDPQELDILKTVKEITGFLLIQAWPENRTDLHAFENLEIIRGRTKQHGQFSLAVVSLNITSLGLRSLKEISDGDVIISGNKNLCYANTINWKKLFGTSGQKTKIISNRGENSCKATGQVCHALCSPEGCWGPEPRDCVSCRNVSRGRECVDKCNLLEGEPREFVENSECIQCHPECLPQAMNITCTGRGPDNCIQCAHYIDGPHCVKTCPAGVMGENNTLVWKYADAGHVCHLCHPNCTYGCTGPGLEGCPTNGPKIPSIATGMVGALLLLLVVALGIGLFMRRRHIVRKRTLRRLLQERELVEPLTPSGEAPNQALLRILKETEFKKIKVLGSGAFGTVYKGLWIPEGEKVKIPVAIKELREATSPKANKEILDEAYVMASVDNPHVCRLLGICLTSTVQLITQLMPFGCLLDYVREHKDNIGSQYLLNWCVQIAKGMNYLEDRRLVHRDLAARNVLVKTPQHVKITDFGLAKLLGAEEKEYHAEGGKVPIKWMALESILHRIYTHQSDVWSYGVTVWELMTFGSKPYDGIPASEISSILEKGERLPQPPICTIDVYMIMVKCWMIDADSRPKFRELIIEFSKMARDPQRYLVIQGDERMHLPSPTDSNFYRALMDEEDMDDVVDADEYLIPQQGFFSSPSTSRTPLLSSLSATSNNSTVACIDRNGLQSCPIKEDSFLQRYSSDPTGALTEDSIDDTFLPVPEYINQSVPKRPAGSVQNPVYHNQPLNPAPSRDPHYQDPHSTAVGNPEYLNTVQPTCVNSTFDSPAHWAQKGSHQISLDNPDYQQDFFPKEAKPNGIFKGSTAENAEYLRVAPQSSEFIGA
Chain of RIPK2 (O43353 whole entry, species assumed): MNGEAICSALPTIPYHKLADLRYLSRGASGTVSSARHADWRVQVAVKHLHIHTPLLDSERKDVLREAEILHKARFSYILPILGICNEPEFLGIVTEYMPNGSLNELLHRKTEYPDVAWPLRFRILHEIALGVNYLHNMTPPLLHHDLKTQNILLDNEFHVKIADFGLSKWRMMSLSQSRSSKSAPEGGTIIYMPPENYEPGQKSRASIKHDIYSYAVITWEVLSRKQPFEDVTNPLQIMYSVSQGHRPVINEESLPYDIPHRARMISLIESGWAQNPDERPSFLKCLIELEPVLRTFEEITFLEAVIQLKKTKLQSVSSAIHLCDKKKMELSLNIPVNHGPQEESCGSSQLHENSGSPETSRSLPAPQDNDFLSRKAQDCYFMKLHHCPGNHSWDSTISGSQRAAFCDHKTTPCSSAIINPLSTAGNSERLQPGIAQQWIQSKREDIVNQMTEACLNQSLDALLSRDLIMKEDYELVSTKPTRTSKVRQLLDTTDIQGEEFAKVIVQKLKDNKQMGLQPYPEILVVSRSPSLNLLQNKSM

A word on the remaining activity: it is the signal under treatment as a percentage of the control signal. In general, IC50 refers to the midpoint of a concentration-inhibition curve. Regarding `C[S@+]([O-])c1c(F)c(F)c(F)c(F)c1C(=O)N1CC(n2nc(-c3ccc(Oc4ccccc4)cc3)c3c(N)ncnc32)C1` (racemic) [Compound I-37, (3-(4-amino-3-(4-phenoxyphenyl)-1H-pyrazolo[3,4-d]pyrimidin-1-yl)azetidin-1-yl)(2,3,4,5-tetrafluoro-6-(methylsulfinyl)phenyl)methanone], the remaining activity at 1 µM was < 50% on BTK [1]; < 50% on BMX; 50 to 90% at RIPK2; > 90% on FGFR4; < 50% at EGFR; < 50% at JAK3. Further, the remaining activity at 10 µM is < 50% on BTK [1]; < 50% at BMX; > 90% on RIPK2; > 90% on FGFR4; < 50% at EGFR; < 50% on JAK3. Besides, the IC50 on BTK [1] is < 1 µM; against BMX it was < 1 µM; at EGFR, < 1 µM; on JAK3 it was > 1 µM. Besides, the “% BTK degradation (RAMOS, 24 h)” value on BTK [2] was “Y”.

Consider `C[S@+]([O-])c1c(F)c(F)c(F)c(F)c1C(=O)Nc1ncnc2[nH]ccc12` (racemic) [Compound I-46, 2,3,4,5-tetrafluoro-6-(methylsulfinyl)-N-(7H-pyrrolo[2,3-d]pyrimidin-4-yl)benzamide], for which the remaining activity at 1 µM is 50 to 90% at BTK [1]; 50 to 90% on BMX; < 50% on RIPK2; 50 to 90% at FGFR4; > 90% on EGFR; > 90% at JAK3. The remaining activity at 10 µM is < 50% on BTK [1]; 50 to 90% at BMX; 50 to 90% at RIPK2; > 90% at FGFR4; > 90% at EGFR; > 90% on JAK3. Moreover, the “% BTK degradation (RAMOS, 24 h)” value at BTK [2] was “Y”.

In the case of `CS(=O)(=O)c1c(F)c(F)c(F)c(F)c1C(=O)Nc1cc2c(Nc3ccc(F)c(Cl)c3)ncnc2cc1O[C@H]1CCOC1` [Compound I-5, (S)—N-(4-((3-chloro-4-fluorophenyl)amino)-7-((tetrahydrofuran-3-yl)oxy)quinazolin-6-yl)-2,3,4,5-tetrafluoro-6-(methylsulfonyl)benzamide], the remaining activity at 1 µM was < 50% at BTK [1]; 50 to 90% on BMX; > 90% at FGFR4; < 50% on EGFR; 50 to 90% at JAK3. Further, the remaining activity at 10 µM at BTK [1] is < 50%; on BMX it was < 50%; on FGFR4 it was > 90%; on EGFR it was < 50%; on JAK3 it was < 50%. The “% BTK degradation (RAMOS, 24 h)” value on BTK [2] is listed as “Y”. Further, the IC50 at EGFR is < 1 µM.

Turning to `CN(CCn1nc(-c2ccc(Oc3ccccc3)cc2)c2c(N)ncnc21)C(=O)c1c(F)c(F)c(F)c(F)c1S(N)(=O)=O` [Compound I-33, N-(2-(4-amino-3-(4-phenoxyphenyl)-1H-pyrazolo[3,4-d]pyrimidin-1-yl)ethyl)-2,3,4,5-tetrafluoro-N-methyl-6-sulfamoylbenzamide], the remaining activity at 1 µM at BTK [1] is < 50%; at BMX it was < 50%; at RIPK2 it was 50 to 90%; at FGFR4, 50 to 90%; on EGFR it was > 90%; at JAK3 it was > 90%. Further, the remaining activity at 10 µM at BTK [1] was < 50%; on BMX, < 50%; at RIPK2 it was > 90%; on FGFR4, < 50%; on EGFR, < 50%; on JAK3, 50 to 90%. Further, the IC50 on BTK [1] was < 1 µM. Further, on BTK [2], the “% BTK degradation (RAMOS, 24 h)” value is listed as “Y”.

With `CS(=O)(=O)c1c(F)c(F)c(F)c(F)c1CNCCNc1ncnc2[nH]ccc12` [Compound I-50, N^1-(7H-pyrrolo[2,3-d]pyrimidin-4-yl)-N2-(2,3,4,5-tetrafluoro-6-(methylsulfonyl)benzyl) ethane-1,2-diamine], the remaining activity at 1 µM at BTK [1] was < 50%; on BMX it was < 50%; at FGFR4 it was > 90%; on EGFR, > 90%; at JAK3, < 50%. The remaining activity at 10 µM at BTK [1] was < 50%; at BMX, < 50%; at FGFR4, 50 to 90%; at EGFR it was 50 to 90%; on JAK3 it was < 50%. In addition, the IC50 on BTK [1] is < 1 µM; against BMX, < 1 µM; against JAK3, > 1 µM. The “% BTK degradation (RAMOS, 24 h)” value at BTK [2] is recorded as “Y”.

In the case of `COCCOc1ccc(Nc2ncc(F)c(Nc3cccc(Nc4c(F)c(F)c(F)c(F)c4S(C)(=O)=O)c3)n2)cc1` [Compound I-64, 5-fluoro-N^2-(4-(2-methoxyethoxy)phenyl)-N^4-(3-((2,3,4,5-tetrafluoro-6-(methylsulfonyl)phenyl)amino)phenyl)pyrimidine-2,4-diamine], the remaining activity at 1 µM at BTK [1] is < 50%; on BMX it was < 50%; at FGFR4 it was < 50%; at EGFR, > 90%; at JAK3, 50 to 90%. The remaining activity at 10 µM on BTK [1] was < 50%; at BMX it was < 50%; at FGFR4, < 50%; at EGFR, > 90%; at JAK3, < 50%. Also, the “% BTK degradation (RAMOS, 24 h)” value at BTK [2] is “Y”.
